Measurements from US20250275959A1, “COMPOUNDS AND METHODS OF THEIR USE” (LEXICON PHARMACEUTICALS, INC., priority 2024, published 2025).

Assays:
[1] = target: T1, hACSL5 (Homo sapiens (Human), UniProt Q9ULC5); test: Cell-based assay (CBA) with B12FA in hACSL5-transfected Expi293F / FlpIn TRex293 cells; conditions: hACSL5-expressing cells
Outline: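 hACSL5-expressing Expi293F or tetracycline-induced FlpIn TRex293 cells, serum- and glucose-starved 1 h, then treated 3 h with serially diluted compound plus 20 µM B12FA. After fixation, 630/520 nm emission ratio (ex 485 nm) gave % inhibition versus no-inhibitor and 10 µM compound/non-induced controls; IC50 by Hill fit.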
Target sequence in this assay (Q9ULC5 whole entry): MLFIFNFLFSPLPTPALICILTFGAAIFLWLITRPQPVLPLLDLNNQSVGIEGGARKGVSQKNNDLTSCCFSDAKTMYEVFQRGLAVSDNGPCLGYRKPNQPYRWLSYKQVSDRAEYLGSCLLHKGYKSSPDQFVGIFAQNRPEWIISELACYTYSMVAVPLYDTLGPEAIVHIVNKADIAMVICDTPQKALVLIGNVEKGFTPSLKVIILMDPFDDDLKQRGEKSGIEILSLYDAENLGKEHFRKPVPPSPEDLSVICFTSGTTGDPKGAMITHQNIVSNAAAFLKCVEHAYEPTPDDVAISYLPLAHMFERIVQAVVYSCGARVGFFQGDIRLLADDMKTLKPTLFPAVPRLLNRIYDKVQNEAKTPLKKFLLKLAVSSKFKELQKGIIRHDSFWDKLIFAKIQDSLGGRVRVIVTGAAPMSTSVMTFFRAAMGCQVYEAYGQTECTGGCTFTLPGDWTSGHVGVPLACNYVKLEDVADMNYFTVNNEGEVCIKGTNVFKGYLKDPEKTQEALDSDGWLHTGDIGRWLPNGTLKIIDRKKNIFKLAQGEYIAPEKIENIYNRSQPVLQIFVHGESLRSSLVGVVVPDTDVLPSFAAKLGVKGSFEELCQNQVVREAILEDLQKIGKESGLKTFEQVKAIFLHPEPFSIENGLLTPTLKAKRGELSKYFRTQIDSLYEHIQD

[2] = target: T1, hACSL5; test: Human ACSL5 coupled enzyme Amplex Red assay; assay type: biochemical; conditions: read-out: hACSL5 IC50
Outline: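 C-terminally His-tagged ACSL5 (33-683) from sf9 cells, 20 nM, was preincubated with compound in MOPS-NaOH pH 7.6 with MgCl2, peroxidase and acyl-CoA oxidase. Reactions were started with 25 μM oleate, 30 μM CoA, 1 mM ATP and 50 μM Amplex Red; fluorescence (535/590 nm) after 10 minutes at 25° C. was fitted to the Hill equation for IC50 and maximal inhibition.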
Target sequence in this assay (Q9ULC5 33-683): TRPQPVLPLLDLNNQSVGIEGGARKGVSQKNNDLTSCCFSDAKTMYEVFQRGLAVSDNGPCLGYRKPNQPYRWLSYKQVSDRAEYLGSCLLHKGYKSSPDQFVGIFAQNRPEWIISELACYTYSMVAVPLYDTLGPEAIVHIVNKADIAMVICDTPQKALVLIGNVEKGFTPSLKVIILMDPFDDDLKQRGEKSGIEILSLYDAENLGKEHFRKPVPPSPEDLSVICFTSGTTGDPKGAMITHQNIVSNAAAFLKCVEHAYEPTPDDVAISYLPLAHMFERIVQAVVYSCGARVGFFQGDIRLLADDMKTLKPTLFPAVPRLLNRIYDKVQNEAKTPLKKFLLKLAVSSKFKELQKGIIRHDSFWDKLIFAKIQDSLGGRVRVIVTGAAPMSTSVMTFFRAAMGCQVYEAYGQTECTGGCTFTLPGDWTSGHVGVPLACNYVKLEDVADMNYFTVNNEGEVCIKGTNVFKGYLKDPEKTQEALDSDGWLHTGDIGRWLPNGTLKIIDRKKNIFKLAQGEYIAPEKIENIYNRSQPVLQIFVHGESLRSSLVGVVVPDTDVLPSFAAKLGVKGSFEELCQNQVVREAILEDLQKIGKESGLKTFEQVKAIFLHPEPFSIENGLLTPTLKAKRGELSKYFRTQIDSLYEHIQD

SMILES	IC50 [1] [µM]	IC50 [2] [µM]
CC[C@@H](Oc1ccc(C(=O)NS(=O)(=O)c2ccc(NC3CCN(C(C)C)CC3)nc2)c(F)c1F)c1ccc(OCC2CC2)cn1 [(R)-4-(1-(5-(cyclopropylmethoxy)pyridin-2-yl)propoxy)-2,3-difluoro-N-((6-((1-isopropylpiperidin-4-yl)amino)pyridin-3-yl)sulfonyl)benzamide]	> 0.5	< 0.1
CC[C@@H](Oc1ccc(C(=O)NS(=O)(=O)c2ccc(OC3CCN(C(C)C)CC3)nc2)c(F)c1F)c1ccc(OCC2CC2)cn1 [(R)-4-(1-(5-(cyclopropylmethoxy)pyridin-2-yl)propoxy)-2,3-difluoro-N-((6-((1-isopropylpiperidin-4-yl)oxy)pyridin-3-yl)sulfonyl)benzamide]	0.1 to 0.5	< 0.1
CC[C@@H](Oc1ccc(C(=O)NS(=O)(=O)c2ccc(OC3CCN(C)CC3)nn2)c(F)c1F)c1ccc(OCC2CC2)cn1 [(R)-4-(1-(5-(cyclopropylmethoxy)pyridin-2-yl)propoxy)-2,3-difluoro-N-((6-((1-methylpiperidin-4-yl)oxy)pyridazin-3-yl)sulfonyl)benzamide]	> 0.5	< 0.1
CC[C@@H](Oc1ccc(C(=O)NS(=O)(=O)c2ccc(OC3CCN(C)CC3)nc2)c(F)c1F)c1ccc(OCC2CC2)cn1 [(R)-4-(1-(5-(cyclopropylmethoxy)pyridin-2-yl)propoxy)-2,3-difluoro-N-((6-((1-methylpiperidin-4-yl)oxy)pyridin-3-yl)sulfonyl)benzamide]	0.1 to 0.5	< 0.1
CC[C@@H](Oc1ccc(C(=O)NS(=O)(=O)c2ccc(NCCN3CCCC3)nc2)c(F)c1F)c1ccc(OCC2CC2)cn1 [(R)-4-(1-(5-(cyclopropylmethoxy)pyridin-2-yl)propoxy)-2,3-difluoro-N-((6-((2-(pyrrolidin-1-yl)ethyl)amino)pyridin-3-yl)sulfonyl)benzamide]	> 0.5	< 0.1
CC[C@@H](Oc1ccc(C(=O)NS(=O)(=O)c2ccc(OCCN(C)C)cc2)cc1C(F)(F)F)c1ccc(OCC2CC2)cn1 [(R)-4-(1-(5-(cyclopropylmethoxy)pyridin-2-yl)propoxy)-N-((4-(2-(dimethylamino)ethoxy)phenyl)sulfonyl)-3-(trifluoromethyl)benzamide]	0.1 to 0.5	< 0.1
CC[C@@H](Oc1ccc(C(=O)NS(=O)(=O)N2CCC(OCCN(C)C)CC2)c(F)c1F)c1ccc(OCC2CC2)cn1 [(R)-4-(1-(5-(cyclopropylmethoxy)pyridin-2-yl)propoxy)-N-((4-(2-(dimethylamino)ethoxy)piperidin-1-yl)sulfonyl)-2,3-difluorobenzamide]	0.1 to 0.5	< 0.1
CC[C@@H](Oc1ccc(C(=O)NS(=O)(=O)c2ccc(OC3CCN(CC4CC4)CC3)cc2)c(F)c1F)c1ccc(OCC2CC2)cn1 [(R)-4-(1-(5-(cyclopropylmethoxy)pyridin-2-yl)propoxy)-N-((4-((1-(cyclopropylmethyl)piperidin-4-yl)oxy)phenyl)sulfonyl)-2,3-difluorobenzamide]	< 0.1	< 0.1
CC[C@@H](Oc1ccc(C(=O)NS(=O)(=O)c2ccc(OC3CCN(CC)CC3)cc2)c(F)c1F)c1ccc(OCC2CC2)cn1 [(R)-4-(1-(5-(cyclopropylmethoxy)pyridin-2-yl)propoxy)-N-((4-((1-ethylpiperidin-4-yl)oxy)phenyl)sulfonyl)-2,3-difluorobenzamide]	< 0.1	< 0.1
CC[C@@H](Oc1ccc(C(=O)NS(=O)(=O)N2CCC(OC3CCN(C)CC3)CC2)cc1C(F)(F)F)c1ccc(OCC2CC2)cn1 [(R)-4-(1-(5-(cyclopropylmethoxy)pyridin-2-yl)propoxy)-N-((4-((1-methylpiperidin-4-yl)oxy)piperidin-1-yl)sulfonyl)-3-(trifluoromethyl)benzamide]	< 0.1	< 0.1
CC[C@@H](Oc1ccc(C(=O)NS(=O)(=O)N2CCC(CN3CCN(CC)CC3)CC2)c(F)c1F)c1ccc(OCC2CC2)cn1 [(R)-4-(1-(5-(cyclopropylmethoxy)pyridin-2-yl)propoxy)-N-((4-((4-ethylpiperazin-1-yl)methyl)piperidin-1-yl)sulfonyl)-2,3-difluorobenzamide]	> 0.5	< 0.1
CC[C@@H](Oc1ccc(C(=O)NS(=O)(=O)N2CCN(CC3CC3)CC2)c(F)c1F)c1ccc(OCC2CC2)cn1 [(R)-4-(1-(5-(cyclopropylmethoxy)pyridin-2-yl)propoxy)-N-((4-(cyclopropylmethyl)piperazin-1-yl)sulfonyl)-2,3-difluorobenzamide]	0.1 to 0.5	< 0.1
CC[C@@H](Oc1ccc(C(=O)NS(=O)(=O)N2CCN(C3CC3)CC2)c(F)c1F)c1ccc(OCC2CC2)cn1 [(R)-4-(1-(5-(cyclopropylmethoxy)pyridin-2-yl)propoxy)-N-((4-cyclopropylpiperazin-1-yl)sulfonyl)-2,3-difluorobenzamide]	< 0.1	< 0.1
CC[C@@H](Oc1ccc(C(=O)NS(=O)(=O)N2CCN(CC)CC2)cc1C(F)(F)F)c1ccc(OCC2CC2)cn1 [(R)-4-(1-(5-(cyclopropylmethoxy)pyridin-2-yl)propoxy)-N-((4-ethylpiperazin-1-yl)sulfonyl)-3-(trifluoromethyl)benzamide]	< 0.1	< 0.1
CC[C@@H](Oc1ccc(C(=O)NS(=O)(=O)N2CC3(CC(OCCN(C)C)C3)C2)c(F)c1F)c1ccc(OCC2CC2)cn1 [(R)-4-(1-(5-(cyclopropylmethoxy)pyridin-2-yl)propoxy)-N-((6-(2-(dimethylamino)ethoxy)-2-azaspiro[3.3]heptan-2-yl)sulfonyl)-2,3-difluorobenzamide]	> 0.5	0.1 to 0.5
CC[C@@H](Oc1ccc(C(=O)NS(=O)(=O)c2ccc(OCCn3ccnc3)cc2)c(F)c1F)c1ccc(OCCOC)cn1 [(R)-N-((4-(2-(1H-imidazol-1-yl)ethoxy)phenyl)sulfonyl)-2,3-difluoro-4-(1-(5-(2-methoxyethoxy)pyridin-2-yl)propoxy)benzamide]	> 0.5	< 0.1

Continued, values first:

IC50 [1] [µM]	IC50 [2] [µM]	SMILES
0.1 to 0.5	< 0.1	CC[C@@H](Oc1ccc(C(=O)NS(=O)(=O)c2ccc(OCCN3CCCC3)nc2)c(F)c1F)c1ccc(OCC2CC2)cn1 [(R)-4-(1-(5-(cyclopropylmethoxy)pyridin-2-yl)propoxy)-2,3-difluoro-N-((6-(2-(pyrrolidin-1-yl)ethoxy)pyridin-3-yl)sulfonyl)benzamide]
> 0.5	< 0.1	CC[C@@H](Oc1ccc(C(=O)NS(=O)(=O)c2ccc(NC3CCN(C)CC3)nc2)c(F)c1F)c1ccc(OCC2CC2)cn1 [(R)-4-(1-(5-(cyclopropylmethoxy)pyridin-2-yl)propoxy)-2,3-difluoro-N-((6-((1-methylpiperidin-4-yl)amino)pyridin-3-yl)sulfonyl)benzamide]
> 0.5	0.1 to 0.5	CC[C@@H](Oc1ccc(C(=O)NS(=O)(=O)N2CC3(CC(OC4CCN(C)CC4)C3)C2)c(F)c1F)c1ccc(OCC2CC2)cn1 [(R)-4-(1-(5-(cyclopropylmethoxy)pyridin-2-yl)propoxy)-2,3-difluoro-N-((6-((1-methylpiperidin-4-yl)oxy)-2-azaspiro[3.3]heptan-2-yl)sulfonyl)benzamide]
0.1 to 0.5	0.1 to 0.5	CC[C@@H](Oc1ccc(C(=O)NS(=O)(=O)C(C)(C)CN(C)C)c(F)c1F)c1ccc(OCC2CC2)cn1 [(R)-4-(1-(5-(cyclopropylmethoxy)pyridin-2-yl)propoxy)-N-((1-(dimethylamino)-2-methylpropan-2-yl)sulfonyl)-2,3-difluorobenzamide]
0.1 to 0.5	< 0.1	CC[C@@H](Oc1ccc(C(=O)NS(=O)(=O)c2ccc(OC3CCN(CC(F)F)CC3)cc2)c(F)c1F)c1ccc(OCC2CC2)cn1 [(R)-4-(1-(5-(cyclopropylmethoxy)pyridin-2-yl)propoxy)-N-((4-((1-(2,2-difluoroethyl)piperidin-4-yl)oxy)phenyl)sulfonyl)-2,3-difluorobenzamide]
0.1 to 0.5	< 0.1	CC[C@@H](Oc1ccc(C(=O)NS(=O)(=O)N2CCC(OC3CCN(CC4CC4)CC3)CC2)c(F)c1F)c1ccc(OCC2CC2)cn1 [(R)-4-(1-(5-(cyclopropylmethoxy)pyridin-2-yl)propoxy)-N-((4-((1-(cyclopropylmethyl)piperidin-4-yl)oxy)piperidin-1-yl)sulfonyl)-2,3-difluorobenzamide]
< 0.1	< 0.1	CC[C@@H](Oc1ccc(C(=O)NS(=O)(=O)N2CCN(CC)CC2)c(F)c1F)c1ccc(OCC2CC2)cn1 [(R)-4-(1-(5-(cyclopropylmethoxy)pyridin-2-yl)propoxy)-N-((4-ethylpiperazin-1-yl)sulfonyl)-2,3-difluorobenzamide]
< 0.1	< 0.1	CC[C@@H](Oc1ccc(C(=O)NS(=O)(=O)N2CCN(C)CC2)cc1C(F)(F)F)c1ccc(OCC2CC2)cn1 [(R)-4-(1-(5-(cyclopropylmethoxy)pyridin-2-yl)propoxy)-N-((4-methylpiperazin-1-yl)sulfonyl)-3-(trifluoromethyl)benzamide]
> 0.5	< 0.1	CC[C@@H](Oc1ccc(C(=O)NS(=O)(=O)c2ccc(CN3CCN(CC)CC3)nc2)c(F)c1F)c1ccc(OCC2CC2)cn1 [(R)-4-(1-(5-(cyclopropylmethoxy)pyridin-2-yl)propoxy)-N-((6-((4-ethylpiperazin-1-yl)methyl)pyridin-3-yl)sulfonyl)-2,3-difluorobenzamide]
< 0.1	< 0.1	CC[C@@H](Oc1ccc(C(=O)NS(=O)(=O)C(C)(C)CN(C)C)c(F)c1F)c1ccc(Oc2ccccn2)cn1 [(R)-N-((1-(dimethylamino)-2-methylpropan-2-yl)sulfonyl)-2,3-difluoro-4-(1-(5-(pyridin-2-yloxy)pyridin-2-yl)propoxy)benzamide]
